From US12268683B2, “Compounds and methods for synergistic activation of M channels” (THE REGENTS OF THE UNIVERSITY OF CALIFORNIA, priority 2018, dated 2025)
Entries after “also recorded” stand apart in the source; their conditions may differ. Read-outs that look alike come from different tables or passages of the source.

Columns and labels:
Format in all cases: cell-based
KCNQ2/3 = KCNQ2/3 (Homo sapiens, UniProt O43525+O43526); assay: TEVC of heteromeric KCNQ2/3 channels expressed in Xenopus laevis oocytes
Excerpt: (§1) cRNA transcripts encoding human KCNA1, KCNQ1, KCNQ2, KCNQ3, KCNQ4, or KCNQ5 were generated by in vitro transcription using the T7 polymerase message machine kit (Thermo Fisher Scientific), after vector linearization, from cDNA sub-cloned into plasmids incorporating X. laevis β-globin 5′ and 3′ UTRs flanking the coding region to enhance translation and cRNA stability. cRNA was quantified by spectrophotometry. Mutant cDNAs were generated by site-directed mutagenesis using a QuikChange kit according to manufacturer's protocol (Stratagene, San Diego, Calif.) and corresponding cRNAs prepared as above. Defolliculated stage V and VI X. laevis oocytes (Ecocyte Bioscience, Austin, Tex.) were injected with Kv channel a subunit cRNAs (10 ng total per oocyte). Oocytes were incubated at 16° C. in Barth's saline solution (Ecocyte) containing penicillin and streptomycin, with daily washing, for 3-5 days prior to two-electrode voltage-clamp (TEVC) recording.
TEVC recording was performed at room temperature with an OC-725C amplifier (Warner Instruments, Hamden, Conn.) and pClamp10.2 software (Molecular Devices, Sunnyvale, Calif.) 3-5 days after cRNA injection as described in the section above. Oocytes were placed in a small-volume oocyte bath (Warner) and viewed with a dissection microscope. Chemicals were sourced from Sigma. Bath solution was (in mM): 96 NaCl, 4 KCl, 1 MgCl2, 1 CaCl2. 10 HEPES (pH 7.6). […] MTX (DMSO), sorbic acid (ethanol), and glutaconic acid (molecular grade H2O) were stored at −20° C. as 1 M stocks. Oleamide was stored as a 1 mM stock in ethanol at 4° C. Palmitic acid was conjugated with bovine serum albumin as a 1 mM stock and stored at −20° C. All compounds were diluted to working concentrations each experimental day. All compounds were introduced to the recording bath via gravity perfusion at a constant flow of 1 ml/min for 3 min prior to recording. Pipettes were of 1-2 MΩ resistance when filled with 3 M KCl. Currents were recorded in response to pulses between −80 and +40 mV at 20 mV intervals, or a single pulse to +40 mV, from a holding potential of −80 mV, to yield current-voltage relationships, current magnitude, and for quantifying activation rate. TEVC data analysis was performed with Clampfit10.2 (Molecular Devices) and Graphpad Prism software (GraphPad, San Diego, Calif., USA); values are stated as mean±SEM. Normalized tail currents were plotted versus prepulse voltage and fitted with a single Boltzmann function: […]
cRNA transcripts encoding human KCNQ2, KCNQ3, KCNQ4, KCNQ5 (Kv7.2-Kv7.5) were generated by in vitro transcription using the T7 polymerase mMessage mMachine kit (Thermo Fisher Scientific), after vector linearization, from cDNA sub-cloned into plasmids incorporating Xenopus laevis β-globin 5′ and 3′ UTRs flanking the coding region to enhance translation and cRNA stability. cRNA was quantified by spectrophotometry. Mutant KCNQ2 and KCNQ3 cDNAs were generated with site-directed mutagenesis using a QuikChange kit according to the manufacturer's protocol (Stratagene, San Diego, Calif.) and corresponding cRNAs prepared as above.

KCNQ5 = KCNQ5 (Homo sapiens, UniProt Q9NR82); assay: TEVC of homomeric KCNQ5 expressed in Xenopus oocytes
Excerpt: as §1
(§2) TEVC recording was performed at room temperature with an OC-725C amplifier (Warner Instruments, Hamden, Conn.) and pClamp10.2 software (Molecular Devices, Sunnyvale, Calif.) 3-5 days after cRNA injection as described in the section above. Oocytes were placed in a small-volume oocyte bath (Warner) and viewed with a dissection microscope. Chemicals were sourced from Sigma. Bath solution was (in mM): 96 NaCl, 4 KCl, 1 MgCl2, 1 CaCl2. 10 HEPES (pH 7.6). […] MTX (DMSO), sorbic acid (ethanol), and glutaconic acid (molecular grade H2O) were stored at −20° C. as 1 M stocks. Oleamide was stored as a 1 mM stock in ethanol at 4° C. Palmitic acid was conjugated with bovine serum albumin as a 1 mM stock and stored at −20° C. All compounds were diluted to working concentrations each experimental day. All compounds were introduced to the recording bath via gravity perfusion at a constant flow of 1 ml/min for 3 min prior to recording. Pipettes were of 1-2 MΩ resistance when filled with 3 M KCl. Currents were recorded in response to pulses between −80 and +40 mV at 20 mV intervals, or a single pulse to +40 mV, from a holding potential of −80 mV, to yield current-voltage relationships, current magnitude, and for quantifying activation rate. TEVC data analysis was performed with Clampfit10.2 (Molecular Devices) and Graphpad Prism software (GraphPad, San Diego, Calif., USA); values are stated as mean±SEM. Normalized tail currents were plotted versus prepulse voltage and fitted with a single Boltzmann function:
(§3) cRNA transcripts encoding human KCNQ2, KCNQ3, KCNQ4, KCNQ5 (Kv7.2-Kv7.5) were generated by in vitro transcription using the T7 polymerase mMessage mMachine kit (Thermo Fisher Scientific), after vector linearization, from cDNA sub-cloned into plasmids incorporating Xenopus laevis β-globin 5′ and 3′ UTRs flanking the coding region to enhance translation and cRNA stability. cRNA was quantified by spectrophotometry. Mutant KCNQ2 and KCNQ3 cDNAs were generated with site-directed mutagenesis using a QuikChange kit according to the manufacturer's protocol (Stratagene, San Diego, Calif.) and corresponding cRNAs prepared as above. Defolliculated stage V and VI Xenopus laevis oocytes (Ecocyte Bioscience, Austin, Tex.) were injected with KCNQ channel α subunit cRNAs (5-10 ng). The oocytes were incubated at 16° C. in Barth's saline solution (Ecocyte) containing penicillin and streptomycin, with daily washing, for 2-5 days prior to two-electrode voltage-clamp (TEVC) recording.
(§4) TEVC recording was performed at room temperature using a OC-725C amplifier (Warner Instruments, Hamden, Conn.) and pClamp8 software (Molecular Devices, Sunnyvale, Calif.) 2-5 days after cRNA injection as described in the section above. The oocytes were placed in a small-volume oocyte bath (Warner) and viewed with a dissection microscope. Unless otherwise stated, chemicals were sourced from Sigma. Bath solution was (in mM): 96 NaCl, 4 KCl, 1 MgCl2, 1 CaCl2, 10 HEPES (pH 7.6).

KCNQ3* (KCNQ3-A315T) = KCNQ3* (KCNQ3-A315T) (Homo sapiens, UniProt O43525, A315T); assay: TEVC of homomeric KCNQ3* expressed in Xenopus oocytes
Excerpt: as §1, §2, §3, §4

KCNQ1 = KCNQ1 (Homo sapiens, UniProt P51787); assay: TEVC of homomeric KCNQ1 expressed in Xenopus oocytes
Description: Oocytes were placed in a small-volume oocyte bath (Warner) and viewed with a dissection microscope. Chemicals were sourced from Sigma. Bath solution was (in mM): 96 NaCl, 4 KCl, 1 MgCl2, 1 CaCl2. 10 HEPES (pH 7.6). […] MTX (DMSO), sorbic acid (ethanol), and glutaconic acid (molecular grade H2O) were stored at −20° C. as 1 M stocks. Oleamide was stored as a 1 mM stock in ethanol at 4° C. Palmitic acid was conjugated with bovine serum albumin as a 1 mM stock and stored at −20° C. All compounds were diluted to working concentrations each experimental day. All compounds were introduced to the recording bath via gravity perfusion at a constant flow of 1 ml/min for 3 min prior to recording. Pipettes were of 1-2 MΩ resistance when filled with 3 M KCl. Currents were recorded in response to pulses between −80 and +40 mV at 20 mV intervals, or a single pulse to +40 mV, from a holding potential of −80 mV, to yield current-voltage relationships, current magnitude, and for quantifying activation rate. […]

CS(=O)(=O)N(CC(=O)O)c1cccc(F)c1 [3FMSG]
effect on KCNQ2/3 gating kinetics (KCNQ2/3): speeded KCNQ2/3 activation and slowed its deactivation
tau of KCNQ2/3 current decrease during washout (KCNQ2/3; 100 μM, −60 mV): 39 ± 10 s
tau of KCNQ2/3 current increase during wash-in (KCNQ2/3; 100 μM, −60 mV): 15 ± 3 s
EC50 (KCNQ2/3; Example 4, read-out: EC50, shift in voltage dependence of KCNQ2/3 activation (ΔV0.5act)): 51 ± 21 nM
EC50 (KCNQ5; Example 4, read-out: EC50 of KCNQ5 activation): 171 ± 112 nM
relative Na+ permeability of KCNQ3* compared to K+ (KCNQ3* (KCNQ3-A315T)): induces a similar increase in relative Na^+ permeability
EC50 (KCNQ3* (KCNQ3-A315T); Example 4, read-out: EC50, ΔV0.5act of KCNQ3*): 18 ± 12 nM
effect on KCNQ1 (in words) (KCNQ1): negligible effects

CCCCCCCCC/C=C/C=O [(E)-2-dodecenal]
effect on KCNQ2/3 activity (in words) (KCNQ2/3): activated KCNQ2/3
shift in voltage dependence of KCNQ2/3 activation (KCNQ2/3; 100 nM): > 10 mV
EC50 (KCNQ2/3; wild-type KCNQ2/3, read-out: EC50 of KCNQ2/3 activation by (E)-2-dodecenal): 60 ± 20 nM
effect on KCNQ3* (in words) (KCNQ3* (KCNQ3-A315T)): insensitive
effect on KCNQ1 (in words) (KCNQ1): sensitive

CC(=O)c1c(O)c(C)c(O)c(Cc2c(O)c3c(c(C(=O)/C=C/c4ccccc4)c2O)OC(C)(C)C=C3)c1O [MTX, mallotoxin]
effect on KCNQ2/3 gating kinetics (KCNQ2/3): speeded KCNQ2/3 activation and slowed deactivation
effect on KCNQ2/3 at low dose (KCNQ2/3; 1 μM alone): negligible effects
effect on voltage dependence of KCNQ2/3 activation, screen of M. oppositifolius leaf compounds (KCNQ2/3; 100 μM, MTX and palmitic acid 30 μM): negative-shifted
effect on KCNQ2/3 at +40 mV (KCNQ2/3; +40 mV): little effect
relative ion permeability of KCNQ2/3 compared to K+ (KCNQ2/3; MTX 30 μM, 100 mM ion): increased relative permeability of KCNQ2/3 to Na^+ and Cs^+, and decreased permeability to Rb^+
shift of V0.5 of KCNQ2/3 activation (ΔV0.5) (KCNQ2/3; RTG 10 μM, MTX 30 μM, IVA 500 μM, alone or in combination): −17 mV
EC50 (KCNQ2/3; current at −60 mV, read-out: EC50 of KCNQ2/3 activation): 11500 nM
time to plateau of KCNQ2/3 activation on wash-in (KCNQ2/3; −60 mV): 5 min
KCNQ2/3 current fold-increase (KCNQ2/3; −60 mV, 100 μM MTX): seven-fold
KCNQ2/3 current fold-increase (KCNQ2/3; −60 mV, MTX 30 μM, IVA 500 μM alone or in combination): fivefold
shift of midpoint voltage of KCNQ5 activation (KCNQ5; MTX 30 μM): −14 mV
KCNQ5 current fold-increase (KCNQ5; −60 mV, 100 μM): eight-fold
EC50 (KCNQ5; −60 mV, read-out: EC50 of KCNQ5 activation): 67100 nM
shift of midpoint voltage of KCNQ3* activation (KCNQ3* (KCNQ3-A315T); MTX 30 μM): −9 mV
EC50 (KCNQ3* (KCNQ3-A315T); −60 mV, read-out: EC50 of KCNQ3* activation): 13000 nM

NCC1(CC(=O)O)CCCCC1 [gabapentin, reference compound]
effect on KCNQ2/3 activity (in words) (KCNQ2/3): potently activated
effect on KCNQ2/3 gating kinetics (KCNQ2/3): speeded KCNQ2/3 activation and slowed deactivation
potency on KCNQ2/3, fold more potent than GABA (KCNQ2/3): 200 fold
shift in voltage dependence of KCNQ2/3 activation (KCNQ2/3; 1 μM gabapentin): −9 mV
washout of effect on KCNQ2/3 (KCNQ2/3; after 2 minutes): < 50%
EC50 (KCNQ2/3; current at −60 mV, read-out: EC50 for KCNQ2/3 activation): 4.2 nM
shift of membrane potential (EM) of KCNQ2/3-expressing oocytes (KCNQ2/3; unclamped oocytes): > −10 mV
time to plateau of KCNQ2/3 current augmentation on wash-in (KCNQ2/3; −60 mV): ~2 min
KCNQ2/3 current fold-increase (KCNQ2/3; −60 mV, 10 nM): 3.5 fold
effect on KCNQ5 (in words) (KCNQ5): activated
maximal fold increase in KCNQ5 current (KCNQ5; −60 mV): 3 fold
EC50 (KCNQ5; −60 mV, read-out: EC50 of KCNQ5 activation by gabapentin): 1.9 nM
effect on KCNQ3* (in words) (KCNQ3* (KCNQ3-A315T)): activated
maximal fold increase in KCNQ3 current (KCNQ3* (KCNQ3-A315T); −60 mV): 4 fold
EC50 (KCNQ3* (KCNQ3-A315T); −60 mV, read-out: EC50 of KCNQ3* activation by gabapentin): 5.3 nM

NCC(=O)O [glycine, reference compound]
effect on KCNQ2/3 activity (in words) (KCNQ2/3): nor does it activate KCNQ2/3; also recorded: no effect
effect on KCNQ5 (in words) (KCNQ5): no effects
effect on KCNQ3* (in words) (KCNQ3* (KCNQ3-A315T)): no effects
